One series addresses T1, EGFR (Homo sapiens, UniProt P00533).
T1 construct: endogenous in cells; host or cells: A431 human epidermoid vulval carcinoma cells
Briefly: Irreversibility test protocol: EGFR autophosphorylation inhibition in intact A431 cells (Western blot). The series is classed as cell-based. To be noted: for irreversible inhibitory characteristic (irreversible binding to EGFR): A431 cells, EGF stimulation 8 hours after removal of the inhibitor vs immediately after. As for the experimental part:
Irreversibility Test Protocol: The inhibitory potency of compounds 1a-c, as well as the irreversible nature of EGFR inhibition thereof were evaluated in intact A431 cells, according to published procedures (Smail et al., 1999). In brief, A431 human epidermoid vulval carcinoma were grown in six-well plates for 48 hours and further maintained in serum-free media for additional 18 hours. Duplicate sets of cells were incubated with increasing concentrations of the tested inhibitor for one hour. One set of the cells was thereafter stimulated with EGF, immediately after removal of the tested inhibitor. Another set of the cells was washed to remove the inhibitor, and EGF stimulation was carried out 8 hours after removal of the inhibitor from the medium. Cell lysates were prepared and loaded onto SDS-PAGE (8% acryl amide) for Western Blot analysis, and the extent of EGFR phosphorylation was evaluated by measuring the signal intensity of the corresponding phosphotyrosine band using a mix of anti-phosphotyrosine antibodies, PY20 (Santa Cruz Biotechnology Inc.) and 4G10 (produced from Su4G10 hybridoma cells). The degree of EGFR phosphorylation was measured for each set of cells and the IC50 values of Compounds 1a-c and 10b, vis-à-vis the level of EGFR's phosphotyrosine content were determined. A minimum of two different assays with similar results were considered. Each experiment was performed in duplicates.
The inhibitory potency of exemplary compounds according to the present embodiments, as well as the extent of their irreversible inhibition of the EGFR were first evaluated in intact A431 cells, using the protocol described hereinabove. The IC50 values were determined by the extent of EGFR phosphorylation at each inhibitor concentration either immediately after or 8 hours post removal of the tested inhibitor from the medium.
A general note: Immunoblotting shows a protein as a band on a membrane.

Series [1] is described as follows: Partition coefficient determination (1-octanol/buffer, HPLC). It is filed as physicochemical. To be noted: 1-octanol / sodium phosphate buffer 0.1 M, pH 7.4; read-out: Log P (partition coefficient). The method, then: Partition coefficient determination: Compounds 1a-c and 10b, ML04 and ML05 (3 mg) were dissolved in sodium phosphate buffer (0.1 M, pH 7.4, 5 ml) and 1-octanol (1 ml) and the resulting mixture was vortexed for 2 minutes, filtered, and maintained at room temperature for 10 minutes. The reaction mixture was then centrifuged at 4000 g for 10 minutes. Fifty (50) μl portions were taken from the organic (1-octanol) and from the aqueous (buffer) layers, and were dissolved in 0.45 ml acetonitrile. The samples were analyzed by HPLC system (C-18 analytical column, a mixture of 55% acetonitrile:45% acetate buffer 0.1 M, pH 3.8 as a mobile phase, flow rate of 1 ml/minute). The partition coefficients (Log P) were determined by the concentration ratio of the tested compound in the organic phase and the aqueous phase. Measurements were performed in triplicate.

Series [2] can be described thus: Water solubility determination (HPLC). The series is classed as physicochemical. To be noted: aqueous buffer, thermodynamic from solid; MOPS buffer pH 7.4, room temperature. The method, then:
DMSO (1 ml) and MOPS buffer pH 7.4 (1 ml) were separately added to test tubes containing the tested compound (Compounds 1a-c and 10b, ML04 or ML05), such that for each compound, two test tubes were prepared. The tubes were sonicated at room temperature for 20 minute, left intact for 10 minutes, and were then filtered through a 0.45 μm filter. Each of the DMSO solutions was diluted 10-folds with DMSO. A 50 μl sample of each solution was analyzed by HPLC (using C-18 analytical column, a mixture of 55% CH3CN:45% acetate buffer 0.1 M, pH 3.8, as a mobile phase at a flow rate of 1 ml/minute, and a UV detector operated at 254 nm). Measurements were performed in triplicate.

Values after ≈ are worked out from the molar mass of the structure shown.

T1 sequence (P00533 25-1210): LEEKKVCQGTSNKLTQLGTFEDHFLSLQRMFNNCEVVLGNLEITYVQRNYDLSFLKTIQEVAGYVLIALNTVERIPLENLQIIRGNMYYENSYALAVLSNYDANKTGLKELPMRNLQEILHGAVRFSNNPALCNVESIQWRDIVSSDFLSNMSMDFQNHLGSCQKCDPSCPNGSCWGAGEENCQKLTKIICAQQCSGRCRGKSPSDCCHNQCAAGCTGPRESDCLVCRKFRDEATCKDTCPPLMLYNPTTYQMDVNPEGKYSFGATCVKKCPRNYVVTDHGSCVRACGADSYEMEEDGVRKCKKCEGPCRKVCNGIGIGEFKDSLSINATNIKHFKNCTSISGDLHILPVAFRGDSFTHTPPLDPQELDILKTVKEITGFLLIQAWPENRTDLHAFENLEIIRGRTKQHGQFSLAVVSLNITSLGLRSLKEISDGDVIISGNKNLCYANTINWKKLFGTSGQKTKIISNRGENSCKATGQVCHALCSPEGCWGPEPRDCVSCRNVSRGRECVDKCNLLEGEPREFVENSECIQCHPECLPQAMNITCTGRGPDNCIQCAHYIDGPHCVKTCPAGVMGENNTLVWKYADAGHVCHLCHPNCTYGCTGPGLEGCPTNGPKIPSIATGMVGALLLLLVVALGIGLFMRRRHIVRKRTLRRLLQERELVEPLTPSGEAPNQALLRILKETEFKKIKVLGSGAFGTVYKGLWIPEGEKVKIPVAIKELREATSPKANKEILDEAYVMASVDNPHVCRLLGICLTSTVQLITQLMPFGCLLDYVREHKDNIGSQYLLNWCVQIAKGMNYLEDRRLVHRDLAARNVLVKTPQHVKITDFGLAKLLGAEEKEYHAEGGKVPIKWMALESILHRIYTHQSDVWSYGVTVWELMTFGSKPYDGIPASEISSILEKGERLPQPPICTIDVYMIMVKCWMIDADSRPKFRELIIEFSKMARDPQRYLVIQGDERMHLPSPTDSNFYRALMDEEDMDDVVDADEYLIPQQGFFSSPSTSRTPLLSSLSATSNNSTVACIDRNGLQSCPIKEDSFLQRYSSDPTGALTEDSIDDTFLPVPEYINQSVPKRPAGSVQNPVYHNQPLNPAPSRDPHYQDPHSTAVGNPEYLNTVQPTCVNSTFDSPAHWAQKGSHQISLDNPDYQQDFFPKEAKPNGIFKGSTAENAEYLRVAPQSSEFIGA

By melting point is commonly meant the temperature, or range, at which the solid turns liquid. Consider `O=C(CCl)Nc1cc2c(Nc3cc(Cl)c(Cl)cc3F)ncnc2cc1OCCOCCOCCOCCF` [Compound 1b, 2-Chloro-N-[4-(4,5-Dichloro-2-fluoro-phenylamino)-7-(2-{2-[2-(2-fluoro-ethoxy)-ethoxy]-ethoxy}-ethoxy)-quinazoline-6-yl]-acetamide], for which the melting point fell in the range of 135 to 137 °C. Further, on EGFR, the “irreversible inhibitory characteristic (irreversible binding to EGFR)” value was “irreversibly bind to the EGFR”.

The IC50 is the concentration needed to halve the response being measured. In general, solubility refers to how much of the substance goes into solution per volume. As for `CN(C)CC=CC(=O)Nc1cc2c(Nc3cc(Cl)c(Cl)cc3F)ncnc2cc1OCCOCCOCCOCCF` [Compound 10b, 4-dimethylamino-but-2-enoic acid {4-(4,5-Dichloro-2-fluoro-phenylamino)-7-(2-{2-[2-(2-fluoro-ethoxy)-ethoxy]-ethoxy}-ethoxy)-quinazoline-6-yl}-amide], the logP in series [1] was determined as 3.7. Besides, at EGFR, the “irreversible inhibitory characteristic (irreversible binding to EGFR)” value is “irreversible inhibitory characteristic”. For the same compound, on EGFR (intact A431 cells, 1 hour incubation with inhibitor, EGF stimulation, read-out: IC50 vis-à-vis the level of EGFR's phosphotyrosine content), the IC50 worked out at 5 nM. Moreover, the concentration in solution in series [2] (solubility at 20 min) came to 3.5 µg/mL (≈ 5.57 µM).

`CN(C)CC=CC(=O)Nc1ccc2ncnc(Nc3cc(Cl)c(Cl)cc3F)c2c1` [ML04, 4-dimethylamino-but-2-enoic acid [4-(3,4-dichloro-6-fluoro-phenylamino)-quinazoline-6-yl]-amide, reference compound]: the logP in series [1] came out at 3.9. For the same compound, the concentration in solution in series [2] (solubility at 20 min) came to 0.14 µg/mL (≈ 0.322 µM).

As for `O=C(CCl)Nc1cc2c(Nc3cc(Cl)c(Cl)cc3F)ncnc2cc1OCCOCCF` [Compound 1a, 2-Chloro-N-{4-(4,5-Dichloro-2-fluoro-phenylamino)-7-[2-(2-fluoro-ethoxy)-ethoxy]-quinazoline-6-yl}-acetamide], the melting point lay within 167 to 169 °C. For the same compound, the “irreversible inhibitory characteristic (irreversible binding to EGFR)” value at EGFR is reported as “irreversibly bind to the EGFR”.

For the compound `O=C(CCl)Nc1cc2c(Nc3cc(Cl)c(Cl)cc3F)ncnc2cc1OCCOCCOCCOCCOCCOCCF` [Compound 1c, 2-Chloro-N-(4-(4,5-Dichloro-2-fluoro-phenylamino)-7-{2-[2-(2-{2-[2-(2-fluoro-ethoxy)-ethoxy]-ethoxy}-ethoxy)-ethoxy]-ethoxy}-quinazoline-6-yl)-acetamide], the “irreversible inhibitory characteristic (irreversible binding to EGFR)” value on EGFR is on record as “irreversibly bind to the EGFR”.

(Values after patent US8461166B2, “Polyalkylene glycol derivatives of inhibitors of epidermal growth factor receptor tyrosine kinase” (Hadasit Medical Research Services and Development Ltd., priority 2005, dated 2013).)
